Activity calls are given as the source filed them. No cut-off for these calls is given here. Square brackets hold non-standard residues; d marks the D form. Peptide text beside a SMILES is read from it. pY = N[C@@H](Cc1ccc(OP(=O)(O)O)cc1)C(=O)O
What was measured:
[1] = target: T1, Tyrosine-protein phosphatase non-receptor type 2 (Homo sapiens) (UniProt P17706); assay: Inhibition of TC-PTP (unknown origin) at 1 mM using pNPP as substrate
T1 sequence (whole entry): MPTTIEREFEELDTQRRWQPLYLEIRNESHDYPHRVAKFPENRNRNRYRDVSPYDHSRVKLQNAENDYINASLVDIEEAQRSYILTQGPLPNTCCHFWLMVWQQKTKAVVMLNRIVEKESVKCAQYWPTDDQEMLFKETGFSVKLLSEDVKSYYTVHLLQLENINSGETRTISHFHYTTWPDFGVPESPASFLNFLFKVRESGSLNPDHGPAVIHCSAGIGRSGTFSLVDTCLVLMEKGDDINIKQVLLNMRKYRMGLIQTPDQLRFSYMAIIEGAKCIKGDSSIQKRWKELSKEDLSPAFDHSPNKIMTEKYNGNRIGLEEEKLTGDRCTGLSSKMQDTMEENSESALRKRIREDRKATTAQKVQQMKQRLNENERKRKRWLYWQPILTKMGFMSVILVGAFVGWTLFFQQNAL

[2] = species: Rattus norvegicus; assay: Anxiolytic activity in scopolamine-induced Wistar rat assessed as increase in number of entries in open arm measured at 15 uM for 5 min by elevated plus maze test; assay type: functional, organism-based
[3] = target: T2, Tyrosine-protein phosphatase non-receptor type 1 (Homo sapiens) (UniProt P18031); assay: Inhibition of […] (unknown origin) at 1 mM using pNPP as substrate
T2 sequence (whole entry): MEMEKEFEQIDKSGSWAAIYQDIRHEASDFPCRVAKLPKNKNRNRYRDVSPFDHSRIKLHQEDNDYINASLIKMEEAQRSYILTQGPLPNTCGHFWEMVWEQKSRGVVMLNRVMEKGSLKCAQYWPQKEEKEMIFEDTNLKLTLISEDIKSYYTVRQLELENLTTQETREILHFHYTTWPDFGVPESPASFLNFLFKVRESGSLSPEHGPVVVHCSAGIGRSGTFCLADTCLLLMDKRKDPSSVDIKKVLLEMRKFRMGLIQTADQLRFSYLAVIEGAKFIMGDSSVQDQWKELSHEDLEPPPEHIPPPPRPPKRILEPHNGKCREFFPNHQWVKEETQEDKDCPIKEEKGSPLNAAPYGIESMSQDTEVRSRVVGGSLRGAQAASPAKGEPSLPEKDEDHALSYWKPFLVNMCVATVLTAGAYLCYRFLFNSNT

[4] = species: Rattus norvegicus; assay: Cognitive enhancing effect in Wistar rat model of scopolamine-induced short term memory impairment assessed as increase in spontaneous alteration at 15 uM measured by Y-maze method; assay type: functional, organism-based
[5] = species: Rattus norvegicus; assay: Antidepressant activity in Wistar rat model of scopolamine-induced depressive like behavior assessed as decrease in immobility time at 15 uM measured after 24 hrs by forced swimming test; assay type: functional, organism-based
[6] = species: Rattus norvegicus; assay: Cognitive enhancing effect in Wistar rat model of scopolamine-induced reference memory impairment assessed as reduction in number of reference memory error at 15 uM by Radial arm maze task; assay type: functional, organism-based
[7] = species: Rattus norvegicus; assay: Cognitive enhancing effect in Wistar rat model of scopolamine-induced working memory impairment assessed as reduction in number of working memory errors at 15 uM by Radial arm maze task; assay type: functional, organism-based
[8] = species: Rattus norvegicus; assay: Anxiolytic activity in scopolamine-induced Wistar rat assessed as increase in time spent in open arm measured at 15 uM for 5 min by elevated plus maze test; assay type: functional, organism-based
[9] = species: Rattus norvegicus; assay: Antidepressant activity in Wistar rat model of scopolamine-induced depressive like behavior assessed as increased swimming time at 15 uM measured after 24 hrs by forced swimming test; assay type: functional, organism-based
[10] = system: HEK293; assay: Inhibition of GluA2-STEP3 (unknown origin) protein-protein interaction expressed in HEK293 cells assessed as reduction in GluA2 dephosphorylation at pY876 residue at 0.1 mM incubated for 30 min by western blotting analysis; assay type: cell-based; conditions: Homo sapiens
[11] = species: Homo sapiens; assay: Inhibition of GluA2-STEP32 C/S mutant (unknown origin) protein-protein interaction at 0.1 to 1 mM by Western blotting based pulldown assay; conditions: dose 0.1-1 mM
[12] = system: Hippocampus; assay: Effect on hippocampal population spike in Wistar rat assessed as increase in amplitude at 15 uM measured after 3 hrs; assay type: functional, tissue-based
[13] = system: Hippocampus; assay: Effect on hippocampal population spike in Wistar rat assessed as increase in spike area and slope at 15 uM measured after 2 hrs; assay type: functional, tissue-based
[14] = system: HEK293; assay: Inhibition of GluA2-STEP3 (unknown origin) protein-protein interaction expressed in HEK293 cells assessed as reduction in GluA2 dephosphorylation at pY876 residue at 1 mM incubated for 30 min by western blotting analysis; assay type: cell-based; conditions: Homo sapiens
[15] = system: Hippocampus; assay: Effect on hippocampal population spike in Wistar rat assessed as increase in spike area and slope at 15 uM measured at 1 hr; assay type: functional, tissue-based
[16] = system: Hippocampus; assay: Effect on hippocampal population spike in Wistar rat assessed as decrease in population spike area at 1.5 mM measured upto 3 hrs; assay type: functional, tissue-based; conditions: time hrs <=3
[17] = system: Rattus norvegicus; assay: Cognitive enhancing effect in Wistar rat model of scopolamine-induced short term memory impairment assessed as increase in spontaneous alteration at 5 mg/kg measured by Y-maze method; assay type: functional, organism-based
[18] = system: Rattus norvegicus; assay: Cognitive enhancing effect in Wistar rat model of scopolamine-induced working memory impairment assessed as reduction in number of working memory errors at 5 mg/kg by Radial arm maze task; assay type: functional, organism-based

Molecule: Ac-YGRKKRRQRRRATYKEGYNVYG-NH2
- inhibition [1]: Active
- Activity [2]: Active
- inhibition [3]: Active
- Activity [4]: Active
- Activity [5]: Active
- Activity [6]: Active
- Activity [7]: Active
- Activity [8]: Active
- Activity [9]: Active

Molecule: CC(=O)N[C@@H](Cc1ccc(O)cc1)C(=O)NCC(=O)N[C@@H](CCCNC(=N)N)C(=O)N[C@@H](CCCCN)C(=O)N[C@@H](CCCCN)C(=O)N[C@@H](CCCNC(=N)N)C(=O)N[C@@H](CCCNC(=N)N)C(=O)N[C@@H](CCC(N)=O)C(=O)N[C@@H](CCCNC(=N)N)C(=O)N[C@@H](CCCNC(=N)N)C(=O)N[C@@H](CCCNC(=N)N)C(=O)N[C@@H](CCC(=O)O)C(=O)NCC(=O)N[C@@H](Cc1ccc(O)cc1)C(=O)N[C@@H](CC(N)=O)C(=O)N[C@H](C(=O)N[C@@H](Cc1ccc(OP(=O)(O)O)cc1)C(N)=O)C(C)C (Ac-YGRKKRRQRRREGYNV[pY]-NH2)
- inhibition [1]: Active
- Activity [2]: Active
- inhibition [3]: Active
- inhibition [10]: Active
- Activity [4]: Active
- inhibition [11]: Active
- Activity [5]: Active
- Activity [6]: Active
- Activity [7]: Active
- Activity [8]: Active
- Activity [9]: Active

Molecule: CC(=O)N[C@@H](Cc1ccc(O)cc1)C(=O)NCC(=O)N[C@@H](CCCNC(=N)N)C(=O)N[C@@H](CCCCN)C(=O)N[C@@H](CCCCN)C(=O)N[C@@H](CCCNC(=N)N)C(=O)N[C@@H](CCCNC(=N)N)C(=O)N[C@@H](CCC(N)=O)C(=O)N[C@@H](CCCNC(=N)N)C(=O)N[C@@H](CCCNC(=N)N)C(=O)N[C@@H](CCCNC(=N)N)C(=O)N[C@@H](CCC(=O)O)C(=O)NCC(=O)N[C@@H](Cc1ccc(O)cc1)C(=O)N[C@@H](CC(N)=O)C(=O)N[C@H](C(=O)N[C@@H](Cc1ccc(OP(=O)(O)O)cc1)C(=O)N[C@@H](CCC(=O)O)C(N)=O)C(C)C (Ac-YGRKKRRQRRREGYNV[pY]E-NH2)
- Activity [12]: Active
- Activity [13]: inactive
- inhibition [1]: Active
- inhibition [14]: Active
- Activity [2]: Active
- Activity [15]: Active
- inhibition [3]: Active
- inhibition [10]: Active
- Activity [4]: Active
- inhibition [11]: Active
- Activity [5]: Active
- Activity [6]: Active
- Activity [7]: Active
- Activity [8]: Active
- Activity [9]: Active
- Activity [16]: Active

Molecule: CC(=O)N[C@@H](Cc1ccc(O)cc1)C(=O)NCC(=O)N[C@@H](CCCNC(=N)N)C(=O)N[C@@H](CCCCN)C(=O)N[C@@H](CCCCN)C(=O)N[C@@H](CCCNC(=N)N)C(=O)N[C@@H](CCCNC(=N)N)C(=O)N[C@@H](CCC(N)=O)C(=O)N[C@@H](CCCNC(=N)N)C(=O)N[C@@H](CCCNC(=N)N)C(=O)N[C@@H](CCCNC(=N)N)C(=O)N[C@@H](C)C(=O)N[C@H](C(=O)N[C@@H](Cc1ccc(O)cc1)C(=O)N[C@@H](CCCCN)C(=O)N[C@@H](CCC(=O)O)C(=O)NCC(=O)N[C@@H](Cc1ccc(O)cc1)C(=O)N[C@@H](CC(N)=O)C(=O)N[C@H](C(=O)N[C@@H](Cc1ccc(OP(=O)(O)O)cc1)C(=O)NCC(N)=O)C(C)C)[C@@H](C)O (Ac-YGRKKRRQRRRATYKEGYNV[pY]G-NH2)
- inhibition [1]: Active
- Activity [2]: Active
- inhibition [3]: Active
- inhibition [10]: Active
- Activity [4]: Active
- inhibition [11]: Active
- Activity [5]: Active
- Activity [6]: Active
- Activity [7]: Active
- Activity [8]: Active
- Activity [9]: Active

Molecule: COc1cc2c(cc1OC)C(=O)C(CC1CCN(Cc3ccccc3)CC1)C2 (centres undefined)
- Activity [17]: Active
- Activity [18]: Active
